# Experimental data from patent publication US6403642B1, “Sulfur adsorbent for reducing onion or garlic breath odor” (PQ Holding, Inc., priority 1999, dated 2002).
# Experiments:
# [1] = Sulfur compound adsorption in the presence of mint oil (sniff test), hydrogen sulfide; settings: H2S 50 ppb, mint oil 50 ppb, adsorbent 0.1% w/v, 20 minutes of shaking, sniffed
# Method: (§1) All dilution operations were done using water under nitrogen in capped bottles. Hydrogen sulfide was measured as a gas in a syringe and injected into a sealed bottle containing deoxygenated water. The concentration (ppb w/w) was calculated assuming all of the hydrogen sulfide (H2S) dissolved in the water after shaking, and using the density of the gas.
# (§2) All of the liquid compounds were handled by syringe. Concentrations of thiols are reported assuming that their specific gravity is 1. Adsorbents, as made by Example 1, were weighed as dry powders into bottles before sealing and before the addition of room temperature dilute sulfide solution. After 20 minutes of shaking, the bottle was unsealed and the contents carefully sniffed.
# (§3) The object of the experiment was to remove the thiol odor but not to remove the mint oil aroma.
# [2] = Sulfur compound adsorption in the presence of mint oil (sniff test), diallyl disulfide; settings: Diallyl disulfide 5 ppb (w/v), mint oil 50 ppb, adsorbent 0.1% w/v, 20 minutes of shaking, sniffed
# Method: as §1, §2, §3
# [3] = Sulfur compound adsorption in the presence of mint oil (sniff test), propane thiol; settings: Propane thiol 5 ppb (w/v), mint oil 50 ppb, adsorbent 0.1% w/v, 20 minutes of shaking, sniffed
# Method: as §1, §2, §3
# [4] = Sulfur compound adsorption in the presence of mint oil (sniff test), allyl mercaptan; settings: Allyl mercaptan 5 ppb (w/v), mint oil 50 ppb, adsorbent 0.1% w/v, 20 minutes of shaking, sniffed
# Method: as §1, §2, §3
# [5] = Activity of metal complexes in removing garlic odor (sniffed for residual odor); set-up: key: ++: complete odor removal; +: slight odor remaining; −: no odor removal; NA: complex was not insoluble; ?: allyl mercaptan smell masked by methionine smell; settings: 5 ml solution with 627 nmol allyl mercaptan in water, sealed vial, 10 minutes, room temperature
# Method: Each amino acid solution was made by dissolving 2.74 g of the amino acid into 40 ml of water. The complex with the metal was synthesized as described in the second step of Example 1.
# Odor removal was tested using 5 ml of a solution containing 627 nmol of allyl mercaptan in water. A suspension of the metal complex was mixed with the mercaptan solution, reacted in a sealed vial for 10 minutes at room temperature, and then sniffed for residual odor.
substance,measurement,setting,value
Cystine-copper Complex,"Smell Garlic, Effect",[1],None
same,"Smell Mint, Effect",[1],strong
same,"Smell Garlic, Effect",[2],v. weak
same,"Smell Garlic, Effect",[3],Faint
same,"Smell Garlic, Effect",[4],v. faint
same,Activity in removing garlic odor,[5],++
